Measured values as given in ChEMBL document CHEMBL4715890, “Flavonoids from Sophora alopecuroides L. improve palmitate-induced insulin resistance by inhibiting PTP1B activity in vitro” (Bioorg Med Chem Lett, 2021).
Values after ≈ are worked out from the molar mass of the structure shown. Active and inactive are the calls of the source. No cut-off for these calls is given here.

How the values were obtained:
C2C12 [1] = experiment: Cytotoxicity against mouse C2C12 cells assessed as reduction in cell viability by MTT assay; format: cell-based; settings: for IC50: Mus musculus, C2C12; for IC10: mouse, c2c12
C2C12 [2] = experiment: Induction of glucose uptake in mouse C2C12 cells at 1 ug/ml; format: functional, cell-based
C2C12 [3] = experiment: Induction of glucose uptake in mouse C2C12 cells at 1 ug/ml in presence of insulin; format: functional, cell-based; settings: dose 1.0 µg/ml
[4] = target: T1, Tyrosine-protein phosphatase non-receptor type 1 (Mus musculus) (UniProt P35821); experiment: Inhibition of PTP1B in mouse PA-induced insulin-resistance C2C12 cells assessed as increase in glucose consumption at 1 ug/ml in presence of insulin after 16 hrs; format: cell-based; settings: dose 1.0 µg/ml
T1 sequence (whole entry): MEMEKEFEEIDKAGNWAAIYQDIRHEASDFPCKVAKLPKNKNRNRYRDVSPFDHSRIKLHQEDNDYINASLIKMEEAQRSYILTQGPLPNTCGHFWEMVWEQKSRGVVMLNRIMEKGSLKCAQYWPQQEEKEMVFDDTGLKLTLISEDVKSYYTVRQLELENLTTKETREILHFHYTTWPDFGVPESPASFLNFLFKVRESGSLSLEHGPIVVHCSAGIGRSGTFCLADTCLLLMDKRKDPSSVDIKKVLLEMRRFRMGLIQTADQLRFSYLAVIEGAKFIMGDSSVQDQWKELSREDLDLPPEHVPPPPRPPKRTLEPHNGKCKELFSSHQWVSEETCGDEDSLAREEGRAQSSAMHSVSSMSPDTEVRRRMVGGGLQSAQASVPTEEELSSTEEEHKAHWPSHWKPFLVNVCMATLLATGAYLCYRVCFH

[5] = target: T2, Tyrosine-protein phosphatase non-receptor type 1 (Homo sapiens) (UniProt P18031); experiment: Inhibition of PTP1B (unknown origin) at 0.1 ug/ml relative to control; settings: dose 0.1 µg/ml
T2 sequence (whole entry): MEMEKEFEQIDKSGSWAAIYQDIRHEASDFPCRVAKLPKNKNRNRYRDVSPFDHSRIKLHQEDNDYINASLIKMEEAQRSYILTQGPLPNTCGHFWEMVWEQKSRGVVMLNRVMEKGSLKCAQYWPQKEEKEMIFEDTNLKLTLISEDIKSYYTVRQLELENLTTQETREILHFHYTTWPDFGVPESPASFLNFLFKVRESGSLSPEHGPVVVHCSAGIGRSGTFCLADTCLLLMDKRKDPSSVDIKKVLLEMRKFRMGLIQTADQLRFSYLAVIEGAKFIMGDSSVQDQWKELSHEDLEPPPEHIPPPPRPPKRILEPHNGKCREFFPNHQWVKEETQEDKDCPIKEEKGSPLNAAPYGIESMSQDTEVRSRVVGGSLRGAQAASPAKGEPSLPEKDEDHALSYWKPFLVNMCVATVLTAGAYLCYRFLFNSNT

SMILES	Glucose consumption increase [4]	inhibition [5] [%]	IC50 (C2C12 [1]) [µg/mL]	IC10 (C2C12 [1]) [µg/mL]	Activity (C2C12 [2])	Activity (C2C12 [3])
COc1ccc(-c2cc(=O)c3c(O)cc(O[C@@H]4O[C@H](CO[C@@H]5O[C@@H](C)[C@H](O)[C@@H](O)[C@H]5O)[C@@H](O)[C@H](O)[C@H]4O)cc3o2)cc1O [DIOSMIN]			20 (≈ 32.8 µM)	5.14 (≈ 8.45 µM)		
O=c1c(O)c(-c2ccc(O)c(O)c2)oc2cc(O)cc(O)c12 [QUERCETIN]			30.8 (≈ 102 µM)	9.23 (≈ 30.5 µM)		
O=c1cc(-c2ccc(O)cc2)oc2cc(O)cc(O)c12 [APIGENIN]			26.6 (≈ 98.4 µM)	4.96 (≈ 18.4 µM)	Active	Active
O=C(/C=C/c1ccc(O)c(O)c1)c1ccc(O)cc1O [BUTEIN]			19 (≈ 69.8 µM)	3.99 (≈ 14.7 µM)		
O=C(/C=C/c1ccc(O)c(O)c1)c1ccc(O[C@@H]2O[C@H](CO)[C@@H](O)[C@H](O)[C@H]2O)cc1O			20.8 (≈ 47.9 µM)	4.39 (≈ 10.1 µM)		
O=C(/C=C/c1ccc(O)cc1)c1ccc(O)cc1O [ISOLIQUIRITIGENIN]			26.3 (≈ 103 µM)	7.43 (≈ 29 µM)	Active	Active
O=c1c(-c2ccc3c(c2)OCO3)coc2cc(O[C@@H]3O[C@H](CO)[C@@H](O)[C@H](O)[C@H]3O)ccc12			13.5 (≈ 30.3 µM)	4.18 (≈ 9.41 µM)		
O=C(/C=C/c1ccccc1)c1ccc(O)cc1O [2',4'-DIHYDROXYCHALCONE]			32.3 (≈ 134 µM)	6.14 (≈ 25.6 µM)	Active	Active

Continued, in another order:

Glucose consumption increase [4]	inhibition [5] [%]	SMILES	IC50 (C2C12 [1]) [µg/mL]	IC10 (C2C12 [1]) [µg/mL]	Activity (C2C12 [2])	Activity (C2C12 [3])
Active	68.9	O=c1cc(-c2ccc(O)c(O)c2)oc2cc(O[C@@H]3O[C@H](CO)[C@@H](O)[C@H](O)[C@H]3O)ccc12	40 (≈ 92.6 µM)	10.07 (≈ 23.3 µM)	Active	Active
Active		COc1cc(O)c2c(=O)c(-c3ccc(O)cc3)coc2c1 [PRUNETIN]	23.2 (≈ 81.8 µM)	7.19 (≈ 25.3 µM)	Active	Active
Active	88.8	O=c1c(-c2ccc(O)cc2)coc2cc(O[C@@H]3O[C@H](CO[C@@H]4OC[C@@H](O)[C@H](O)[C@H]4O)[C@@H](O)[C@H](O)[C@H]3O)cc(O)c12	34.2 (≈ 60.5 µM)	6.07 (≈ 10.8 µM)	Active	Active
Active	68.9	O=c1cc(-c2ccc(O[C@@H]3O[C@H](CO)[C@@H](O)[C@H](O)[C@H]3O)c(O)c2)oc2cc(O)ccc12	29 (≈ 67.1 µM)	5.85 (≈ 13.5 µM)	Active	Active
Active	95.2	COc1cc(/C=C/C(=O)OC[C@H]2O[C@@H](Oc3ccc4c(=O)c(-c5ccc(O)c(O)c5)coc4c3)[C@H](O)[C@@H](O)[C@@H]2O)ccc1O	24.3 (≈ 40 µM)	7.36 (≈ 12.1 µM)	Active	Active
Active		O=c1c(-c2ccc3c(c2)OCO3)coc2cc(O)ccc12 [PSEUDOBAPTOGENIN]	12.1 (≈ 42.8 µM)	3.49 (≈ 12.4 µM)	Active	Active
Active	81.6	O=C(/C=C/c1ccc(O)c(O)c1)OC[C@H]1O[C@@H](Oc2ccc3c(=O)c(-c4ccc(O)cc4)coc3c2)[C@H](O)[C@@H](O)[C@@H]1O	31.2 (≈ 54 µM)	8.81 (≈ 15.2 µM)	Active	Active
Active	70.1	COc1cc(O)c2c(=O)c(-c3ccc(O)c(OC)c3)coc2c1	32.5 (≈ 103 µM)	6.93 (≈ 22 µM)	Active	Active
